Results taken from PMC10246557, “Kinetic and inhibition studies on human Jumonji-C (JmjC) domain-containing protein 5” (RSC Chemical Biology, 2023).
Read-outs that look alike come from different tables or passages of the source. Ends that are not written are not given here.

How the values were obtained:
PHD2 = tested on: PHD2; set-up: method as in PMID 18952043; conditions: PHD2 1.0 nM, cited from earlier work
human KDM4E [1] = molecular target: T1, human KDM4E (Homo sapiens, UniProt B2RXH2); test: KDM4E SPE-MS turnover and kinetic assay (H3 K9(me3) peptide demethylation); assay type: biochemical; conditions: for KDM4E (%): substrate demethylation with the compound as cosubstrate: absence of 2OG, KDM4E 0.15 μM, 2OG derivative 330 μM, Fe(II) 50 μM
T1 sequence (B2RXH2 1-506): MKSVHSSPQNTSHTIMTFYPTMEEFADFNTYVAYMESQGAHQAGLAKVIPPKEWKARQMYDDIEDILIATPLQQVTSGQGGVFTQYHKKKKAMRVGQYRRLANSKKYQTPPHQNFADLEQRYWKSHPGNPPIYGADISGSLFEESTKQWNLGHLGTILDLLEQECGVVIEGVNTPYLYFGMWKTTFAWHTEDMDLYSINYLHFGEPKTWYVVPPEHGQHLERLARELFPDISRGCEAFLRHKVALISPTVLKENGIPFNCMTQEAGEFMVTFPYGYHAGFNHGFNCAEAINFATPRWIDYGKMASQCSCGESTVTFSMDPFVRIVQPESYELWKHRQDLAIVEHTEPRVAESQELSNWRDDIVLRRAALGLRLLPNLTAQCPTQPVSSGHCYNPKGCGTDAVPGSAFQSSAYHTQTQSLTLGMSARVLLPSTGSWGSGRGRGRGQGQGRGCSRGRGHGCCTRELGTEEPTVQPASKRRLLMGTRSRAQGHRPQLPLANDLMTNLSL

human AspH [2] = conditions: cited from earlier work; for AspH (%): substrate hydroxylation with the compound as cosubstrate: absence of 2OG, AspH 0.1 μM, 2OG derivative 330 μM, Fe(II) 50 μM, hFX-CP101–119 2.0 μM
KDM4C = tested on: KDM4C; set-up: method as in PMID 21859681; conditions: KDM4C 0.5 μM, ARTAQTARK(me3)STGGIA substrate; cited from earlier work
human FIH [3] = conditions: FIH 0.15 μM, cited from earlier work; for FIH (%): substrate hydroxylation with the compound as cosubstrate: absence of 2OG, 2OG derivative 330 μM, Fe(II) 50 μM, HIF-1α788–822 5.0 μM
human JMJD5 [4] = molecular target: T2, human JMJD5 (Homo sapiens, UniProt Q8N371); test: SPE-MS JMJD5 turnover and kinetic assay (RPS6_128–148 hydroxylation); assay type: biochemical; conditions: for k app cat: calculated from vmax; for JMJD5 (%): RPS6_128–148 hydroxylation with the compound as cosubstrate: absence of 2OG, JMJD5 0.15 μM, 2OG derivative 400 μM, Fe(II) 20 μM, RPS6_128–148 2.0 μM; for JMJD5-catalyzed RPS6_128–148 hydroxylation, time course: after 50 min, 10 μM cosubstrate, 0.15 μM JMJD5, 10 μM Fe(II), 2.0 μM RPS6_128–148
T2 construct: made in house; host or cells: Escherichia coli BL21(DE3)
T2 sequence (Q8N371 whole entry): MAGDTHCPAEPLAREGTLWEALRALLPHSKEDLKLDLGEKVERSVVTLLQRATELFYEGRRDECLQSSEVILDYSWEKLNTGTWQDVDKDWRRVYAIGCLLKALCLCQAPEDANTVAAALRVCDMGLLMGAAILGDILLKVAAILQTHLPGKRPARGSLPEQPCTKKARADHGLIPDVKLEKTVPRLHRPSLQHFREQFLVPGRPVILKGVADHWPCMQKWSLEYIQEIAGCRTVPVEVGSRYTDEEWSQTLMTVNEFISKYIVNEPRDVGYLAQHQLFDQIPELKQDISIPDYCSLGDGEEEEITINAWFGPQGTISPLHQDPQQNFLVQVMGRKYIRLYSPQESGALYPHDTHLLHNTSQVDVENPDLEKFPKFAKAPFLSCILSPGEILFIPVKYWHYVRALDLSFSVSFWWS

JMJD5 = conditions: cited from earlier work; for K m: 10.0 μM JMJD5, 50 mM HEPES pH 7.5, read-out: Km JMJD5 (MALDI-TOF MS assay)
human KDM4E [5] = molecular target: T1, human KDM4E; test: KDM4E SPE-MS inhibition assay; assay type: biochemical; conditions: KDM4E 0.15 μM, peptide 10.0 μM, LAA 100 μM, FAS 10 μM, 2OG 10 μM
Experimental: KDM4E turnover and inhibition assays were performed as reported using recombinant human KDM4E and a histone 3 K9(me3) derivative (i.e. […](me3)STGGIA)[41] as substrate.[95] […]

human AspH [6] = tested on: human AspH; set-up: method as in ref 9 (ESI); conditions: AspH 0.05 μM, hFX-CP101-119 1.0 μM, 2OG 3.0 μM; ref 9 (ESI); cited from earlier work
human JMJD5 [7] = molecular target: T2, human JMJD5; test: SPE-MS JMJD5 inhibition assay; assay type: biochemical; conditions: JMJD5 0.15 μM, 2OG 2.0 μM, Fe(II) 2.0 μM, LAA 100 μM, RPS6_128–148 2.0 μM; read-out: IC50 JMJD5
Experimental: Solutions of the small-molecules (100% DMSO) were dry dispensed across 384 well polypropylene V-bottom assay microplates (Greiner) in an approximately three-fold and 11-point dilution series (100 μM inhibitor top concentration; the final DMSO assay concentration was kept constant at 0.5%v/v) using an ECHO 550 acoustic dispenser (Labcyte). […] Each reaction was performed in technical duplicates in adjacent wells of the assay plates; additionally, assays were performed in two independent duplicates on different days using different inhibitor solutions.
The Enzyme Mixture (25 μL per well), containing 0.3 μM His6-thioredoxin-tagged JMJD5 in buffer (50 mM MOPS, pH 7.5), was dispensed across the inhibitor-containing 384-well plates with a multidrop dispenser (ThermoFischer Scientific) at 20 °C under an ambient atmosphere. The plates were subsequently centrifuged (1000 rpm, 5 s) and incubated for 15 min at 20 °C. […] The plates were centrifuged (1000 rpm, 5 s) and, after incubating for 30 min, the enzyme reaction was stopped by the addition of 10%v/v aqueous formic acid (5 μL per well). The plates were then centrifuged (1000 rpm, 30 s) and analyzed by MS.
Z′-Factors were calculated according to the cited literature using Microsoft Excel.[61]

human FIH [8] = tested on: human FIH; set-up: method as in ref 10 (ESI); conditions: FIH 0.15 μM, HIF-1α788-822 5.0 μM, 2OG 10 μM; ref 10 (ESI); cited from earlier work
[9] = AspH315–758 0.1 μM, hFX–CP101–119 substrate
[10] = 0.15 μM JMJD5, 50 mM MOPS pH 7.5, 20 °C, 100 μM LAA present
[11] = 0.15 μM JMJD5, 50 mM MOPS pH 7.5, 20 °C, LAA present

For `O=C(O)CCC(=O)C(=O)O` [2OG, 2-oxoglutarate, reference compound], the K m (PHD2; biotin-[…] substrate) is given as 0.35 ± 0.03 µM, the K app m (human KDM4E [1]; 0.15 μM KDM4E, ARTAQTARK(me3)STGGIA 10 μM) is given as 4.2 ± 1.1 µM and the v app max (human KDM4E [1]; 0.15 μM KDM4E, ARTAQTARK(me3)STGGIA 10.0 μM, 50 mM MES pH 7.0, 20 °C) is given as 20.6 ± 1.3 nM/s. The “KDM4E (%): substrate demethylation with the compound as cosubstrate” value (“KDM4E (%): substrate demethylation” for short) (human KDM4E [1]; ARTAQTARK(me3)STGGIA 10.0 μM) was ~ 70%, the K m (human AspH [2]; [9]) was 0.60 ± 0.09 µM and the K m (KDM4C) was 2.6 ± 0.1 µM. For the same compound, the k cat (KDM4C) was 0.075 ± 0.001 s⁻¹, the K m (human FIH [3]; HIF-1α788–822 substrate) was 0.8 ± 0.1 µM and the k cat (human FIH [3]; HIF-1α788–822 substrate) was 0.04 ± 0.01 s⁻¹. For the same compound, the “FIH (%): substrate hydroxylation with the compound as cosubstrate” value (shortened to “FIH (%): substrate hydroxylation”) (human FIH [3]) was ~ 50%, the v app max (human JMJD5 [4]; [10]) was 0.84 ± 0.03 nM/s and the K app m (human JMJD5 [4]; [11]) was 0.29 ± 0.04 µM. The k app cat (human JMJD5 [4]; [11]) was 0.0056 ± 0.0002 s⁻¹, the “JMJD5 (%): RPS6_128–148 hydroxylation with the compound as cosubstrate” value (from here on “JMJD5 (%): RPS6_128–148 hydroxylation”) (human JMJD5 [4]) was ~ 40% and the “JMJD5-catalyzed RPS6_128–148 hydroxylation, time course” value (human JMJD5 [4]) was about 50%. The K m (JMJD5) was about 9.5 µM.
For “RPS6_129–144: truncated version of the RPS6_128–148 substrate peptide used in MALDI-TOF MS assays (VPRRLGPKRASRIRKL-NH2; UniProt P62753 129-144, looked up, fragment)”, the K m (JMJD5) is given as about 60 µM.
For `O=C(O)CNC(=O)c1ncc(-c2cccc(Cl)c2)cc1O` [vadadustat], the IC50 (JMJD5; read-out: IC50 JMJD5 (MALDI-TOF MS assay)) is given as about 54 µM.
In the case of `CC(CC(=O)O)C(=O)C(=O)O` (centres unmarked) [2OG derivative 1, 3-methyl-2OG], the IC50 (human KDM4E [5]) is given as over 30 µM, the IC50 (human AspH [6]) is given as over 50 µM and the “fold less efficient KDM4E cosubstrate than 2OG” value (human KDM4E [1]) is given as about 7 fold. The “KDM4E (%): substrate demethylation” value (human KDM4E [1]; ARTAQTARK(me3)STGGIA 10.0 μM, listed as Entry 2) was ~ 10%, the IC50 (human JMJD5 [7]) was over 50 µM and the IC50 (human FIH [8]) was over 50 µM. The “AspH (%): substrate hydroxylation with the compound as cosubstrate” value (from here on “AspH (%): substrate hydroxylation”) (human AspH [2]; listed as Entry 2) was over 95%, the “FIH (%): substrate hydroxylation” value (human FIH [3]; listed as Entry 2) was ~ 55% and the “JMJD5 (%): RPS6_128–148 hydroxylation” value (human JMJD5 [4]; listed as Entry 2) was ~ 10%. For the same compound, the “JMJD5-catalyzed RPS6_128–148 hydroxylation, time course” value (human JMJD5 [4]) was about 20%.
For “ammonium iron(II) sulfate hexahydrate [Fe(II)]”, the K m (PHD2; biotin-DLEMLAPYIPMDDDFQ substrate) is given as 0.89 ± 0.07 µM, the K m (human AspH [2]; [9]) is given as 1.42 ± 0.16 µM and the k cat (human AspH [2]; [9]) is given as 0.19 ± 0.03 s⁻¹. It also gave a v app max (human JMJD5 [4]; [10]) of 0.75 ± 0.03 nM/s, a k app cat (human JMJD5 [4]; [11]) of 0.005 ± 0.0002 s⁻¹ and a K app m (human JMJD5 [4]; 0.15 μM JMJD5, absence of LAA) of 0.46 ± 0.11 µM. For the same compound, the v app max (human JMJD5 [4]; 0.15 μM JMJD5, absence of LAA) was 0.73 ± 0.05 nM/s, the k app cat (human JMJD5 [4]; 0.15 μM JMJD5, absence of LAA) was 0.0049 ± 0.0004 s⁻¹ and the K m (JMJD5) was about 2.7 µM.
For `O=C(O)C(=O)c1ccc(C(=O)O)c(Br)c1` [2OG derivative 31], the IC50 (human KDM4E [5]) is given as over 50 µM, the IC50 (human AspH [6]) is given as over 50 µM and the “KDM4E (%): substrate demethylation” value (human KDM4E [1]; ARTAQTARK(me3)STGGIA 10.0 μM) is given as under 1%. For the same compound, the IC50 (human JMJD5 [7]) was over 50 µM, the IC50 (human FIH [8]) was over 50 µM and the “AspH (%): substrate hydroxylation” value (human AspH [2]) was ~ 8%. For the same compound, the “FIH (%): substrate hydroxylation” value (human FIH [3]) was under 1% and the “JMJD5 (%): RPS6_128–148 hydroxylation” value (human JMJD5 [4]) was under 1%.
For `O=C(O)C(=O)c1ccc(C(=O)O)c(F)c1` [2OG derivative 29], the IC50 (human KDM4E [5]) is listed as over 50 µM, the IC50 (human AspH [6]) is listed as over 50 µM and the “KDM4E (%): substrate demethylation” value (human KDM4E [1]; ARTAQTARK(me3)STGGIA 10.0 μM) is listed as under 1%. For the same compound, the IC50 (human JMJD5 [7]) was over 50 µM, the IC50 (human FIH [8]) was over 50 µM and the “AspH (%): substrate hydroxylation” value (human AspH [2]) was ~ 8%. For the same compound, the “FIH (%): substrate hydroxylation” value (human FIH [3]) was under 1% and the “JMJD5 (%): RPS6_128–148 hydroxylation” value (human JMJD5 [4]) was under 1%.
